Experimental data as given in patent publication US7432269B2, “Arylpiperaszine derivatives, to the process for the production thereof and to the use thereof as therapeutic agents” (Bioprojet, priority 2004, dated 2008).
Counter-ions that a name gives are not always drawn.

What was measured:
[1] = biological target: T1, human D3 dopamine receptor (hD3) (Homo sapiens, UniProt P35462); experiment: [3H]spiperone binding to human D3 dopamine receptor (transfected CHO cell membranes); conditions: CHO cells transfected with hD3
T1 construct: expressed in transfected cells; host or cells: CHO cells
T1 sequence (P35462 whole entry): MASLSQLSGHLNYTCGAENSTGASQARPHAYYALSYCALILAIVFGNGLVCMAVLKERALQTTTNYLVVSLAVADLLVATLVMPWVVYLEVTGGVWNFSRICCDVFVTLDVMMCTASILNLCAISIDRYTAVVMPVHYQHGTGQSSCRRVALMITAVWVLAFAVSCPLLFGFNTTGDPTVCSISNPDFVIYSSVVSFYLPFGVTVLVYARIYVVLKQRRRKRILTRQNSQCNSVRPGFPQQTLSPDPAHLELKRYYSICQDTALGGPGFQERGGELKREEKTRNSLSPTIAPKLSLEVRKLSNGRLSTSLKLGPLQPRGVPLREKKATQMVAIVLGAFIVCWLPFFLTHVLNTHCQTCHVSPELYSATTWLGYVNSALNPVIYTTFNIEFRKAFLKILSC
Method: CHO cells were transfected with the gene coding for the human D3 dopamine receptor (hD3). [^3H]spiperone binding (0.5 to 2 nM) is performed in the presence of 5 to 10 μg of membrane proteins in a medium containing 120 mM of NaCl, 5 mM of KCl, and 50 mM of Tris-HCl pH 7.4; incubation of 60 minutes at ambient temperature is necessary. Non-specific binding is estimated in the presence of 5 μM of haloperidol. Non-transfected cells have absolutely no binding activity.

[2] = system: human alpha-1 adrenergic receptor (hα1); experiment: [3H]prasozin binding to human alpha-1 adrenergic receptor (transfected HEK 293 cell membranes); conditions: HEK 293 cells transfected with hα1
Method: HEK 293 cells were transfected with the gene coding for the human alpha-1 adrenergic receptor (hα1). [3H]prasozin binding (0.02 to 2 nM) is performed in the presence of 5 to 10 μg of membrane proteins in a medium containing 0.5 mM of EDTA and 50 mM of Tris-HCl pH 7.4; incubation of 60 minutes at ambient temperature is necessary. Non-specific binding is estimated in the presence of 10 μM of phentolamine. Non-transfected cells have absolutely no binding activity.

Row | Ki [1] | Structure (SMILES) | Ki [2]
1 | 0.55 nM | Clc1cccc(N2CCN(CCCCNc3cc(-c4ccccc4)ccn3)CC2)c1Cl [Example 6, 2-{4-[4-(2,3-dichlorophenyl)piperazin-1-yl]butyl}amino-4-phenylpyridine] | 136 nM
2 | 0.76 nM | FC(F)(F)c1cccc(N2CCN(CCCCNc3cc(-c4ccccc4)ccn3)CC2)c1 [Example 4, 2-{4-[4-(3-trifluoromethyl-phenyl)piperazin-1-yl]butyl}amino-4-phenylpyridine dihydrochloride] | 162 nM
